Values of other authors as cited in patent publication US20120237590A1 (priority 2011, published 2012).

Legend:
Amyloid β = conditions: mice, 20 mg/kg gavage, 12 weeks
[1] = June 2005 to 2008; 27,996 exenatide and 16,276 sidagliptin users

- users who suffered acute pancreatitis [1]: 0.12%
SMILES: N[C@@H](CC(=O)N1CCn2c(nnc2C(F)(F)F)C1)Cc1cc(F)c(F)cc1F [Sitagliptin]
- decrease of amyloid β levels and amyloid plaques (Amyloid β): about 50%
- levels of incretin GLP-1 in the brain (Amyloid β): increased
